{"source": "BindingDB's records for doi:10.1016/s0960-894x(03)00628-0", "about": "(Wyeth Research, 2003)", "experiment": "Inhibition of Src protein tyrosine kinase", "data": [{"compound": "COCCOc1cc2nc3ncnc(Nc4cc(OC)c(Cl)cc4Cl)c3cc2cc1OC", "note": "[(2,4-Dichloro-5-methoxy-phenyl)-[7-methoxy-8-(2-methoxy-ethoxy)-pyrimido[4,5-b]quinolin-4-yl]-amine]", "values": [{"measurement": "IC50", "result": "> 10", "unit": "µM"}]}]}
